# Earlier results in patent US20240156749A1, “Pre And Post Natal Compositions Including Carotenoids” (Maravilla, LLC, priority 2022, published 2024).
# Test system: oxygen-induced retinopathy
# Conditions: mouse model of retinopathy of prematurity; prenatal supplementation
row,SMILES,inhibition of oxygen-induced retinopathy
1,CC1=C[C@H](O)CC(C)(C)[C@H]1/C=C/C(C)=C/C=C/C(C)=C/C=C/C=C(C)/C=C/C=C(C)/C=C/C1=C(C)C[C@@H](O)CC1(C)C [lutein],significantly inhibits oxygen-induced retinopathy
2,CC1=C(/C=C/C(C)=C/C=C/C(C)=C/C=C/C=C(C)/C=C/C=C(C)/C=C/C2=C(C)C[C@@H](O)CC2(C)C)C(C)(C)C[C@H](O)C1 [zeaxanthin],significantly inhibits oxygen-induced retinopathy
